The values below come from patent US12662489B2 (Sitryx Therapeutics Limited, priority 2023, dated 2026).

One data set deals with murine EAE model. Conditions: cited from earlier work.
Data set [1] has as its system murine KLH contact sensitization model. The following applies: cited from earlier work.
A further data set relates to CD4+ T-cells. Conditions: cited from earlier work.
A further data set relates to human CD4+ T cells. Put plainly: Human CD4+ T-cell proliferation assay (CFSE, CD3/28 beads). The following applies: read-out: Proliferation IC50.
Data set [2] addresses T1, MTHFD2 recombinant human enzyme (Homo sapiens, UniProt P13995).
T1 sequence (P13995 36-350): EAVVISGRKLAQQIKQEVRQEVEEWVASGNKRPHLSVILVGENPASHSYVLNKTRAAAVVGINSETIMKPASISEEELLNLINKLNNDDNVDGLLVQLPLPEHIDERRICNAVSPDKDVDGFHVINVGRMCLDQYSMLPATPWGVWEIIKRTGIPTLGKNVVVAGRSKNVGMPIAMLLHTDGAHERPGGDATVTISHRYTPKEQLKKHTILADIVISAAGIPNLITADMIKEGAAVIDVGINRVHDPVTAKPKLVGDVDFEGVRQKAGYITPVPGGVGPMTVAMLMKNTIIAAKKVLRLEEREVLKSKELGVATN
Briefly: MTHFD2 inhibition assay (NAD(P)H-Glo luminescence). The following applies: for MTHFD1/MTHFD2 IC50 ratio: selectivity of MTHFD2 inhibition over MTHFD1, band.

Data set [3] addresses T2, MTHFD1 recombinant human enzyme (Homo sapiens, UniProt P11586).
T2 sequence (P11586 2-291 limits assumed): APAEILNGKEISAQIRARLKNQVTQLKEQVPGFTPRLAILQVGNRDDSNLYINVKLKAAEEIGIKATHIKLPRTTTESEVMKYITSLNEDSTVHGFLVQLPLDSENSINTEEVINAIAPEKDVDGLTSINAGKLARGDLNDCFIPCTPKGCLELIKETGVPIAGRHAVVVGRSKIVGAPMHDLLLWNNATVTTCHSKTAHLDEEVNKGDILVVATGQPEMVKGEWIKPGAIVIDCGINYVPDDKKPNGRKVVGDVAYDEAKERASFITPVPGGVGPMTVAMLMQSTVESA
Briefly: MTHFD1 inhibition assay (NAD(P)H-Glo luminescence). Conditions: MTHFD1 IC50, recombinant human enzyme 200 nM, NADP, band.

Data set [4] has as its target T3, human α4β2 neuronal nicotinic receptor (Homo sapiens, UniProt P17787+P43681).
T3 construct: host or cells: SH-SY5Y cells (membrane homogenates)
Briefly: α4β2 neuronal nicotinic receptor assay (agonist radioligand, [3H]cytisine). Type of data set: binding. Conditions: transfected SH-SY5Y cell membranes, 0.6 nM [3H]cytisine, band. On the procedure:
Cell membrane homogenates (30 μg protein) were incubated for 120 min at 4° C. with 0.6 nM [3H]cytisine in the absence or presence of the test compound in a buffer containing 50 mM Tris-HCl (pH 7.4), 120 mM NaCl, 5 mM KCl, 2.5 mM CaCl2 and 1 mM MgCl2. Nonspecific binding was determined in the presence of 10 μM nicotine bitartrate. Following incubation, the samples were filtered rapidly under vacuum through glass fiber filters (GF/B, Packard) presoaked with 0.3% PEI and rinsed several times with ice-cold 50 mM Tris-HCl using a 96-sample cell harvester (Unifilter, Packard).
The filters were dried then counted for radioactivity in a scintillation counter (Topcount, Packard) using a scintillation cocktail (Microscint 0, Packard). The results were expressed as a percent inhibition of the control radioligand specific binding. The standard reference compound was nicotine bitartrate.
A number of example compounds of formula (I) were tested to evaluate their affinity for the human α4β2 neuronal nicotinic receptor expressed in transfected SH-SY5Y cells, determined in a radioligand binding assay.

T3 sequence (P43681 29-627 limits assumed): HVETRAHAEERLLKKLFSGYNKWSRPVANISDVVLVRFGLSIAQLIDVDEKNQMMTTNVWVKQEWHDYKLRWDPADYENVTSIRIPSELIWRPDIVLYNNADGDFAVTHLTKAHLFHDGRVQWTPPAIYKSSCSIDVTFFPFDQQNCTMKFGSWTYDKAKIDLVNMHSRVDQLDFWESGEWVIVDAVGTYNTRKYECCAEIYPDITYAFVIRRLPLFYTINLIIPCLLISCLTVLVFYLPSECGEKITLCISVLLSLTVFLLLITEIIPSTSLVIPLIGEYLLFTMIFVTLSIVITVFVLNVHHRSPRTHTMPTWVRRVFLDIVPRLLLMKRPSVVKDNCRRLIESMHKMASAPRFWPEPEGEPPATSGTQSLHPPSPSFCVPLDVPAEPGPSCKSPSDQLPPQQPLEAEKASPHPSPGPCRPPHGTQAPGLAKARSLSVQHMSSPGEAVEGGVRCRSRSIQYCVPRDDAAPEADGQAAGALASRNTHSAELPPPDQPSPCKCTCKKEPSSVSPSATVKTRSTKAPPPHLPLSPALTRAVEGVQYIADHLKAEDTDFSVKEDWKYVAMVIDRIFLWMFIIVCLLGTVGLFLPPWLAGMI
T3 sequence (P17787 26-502): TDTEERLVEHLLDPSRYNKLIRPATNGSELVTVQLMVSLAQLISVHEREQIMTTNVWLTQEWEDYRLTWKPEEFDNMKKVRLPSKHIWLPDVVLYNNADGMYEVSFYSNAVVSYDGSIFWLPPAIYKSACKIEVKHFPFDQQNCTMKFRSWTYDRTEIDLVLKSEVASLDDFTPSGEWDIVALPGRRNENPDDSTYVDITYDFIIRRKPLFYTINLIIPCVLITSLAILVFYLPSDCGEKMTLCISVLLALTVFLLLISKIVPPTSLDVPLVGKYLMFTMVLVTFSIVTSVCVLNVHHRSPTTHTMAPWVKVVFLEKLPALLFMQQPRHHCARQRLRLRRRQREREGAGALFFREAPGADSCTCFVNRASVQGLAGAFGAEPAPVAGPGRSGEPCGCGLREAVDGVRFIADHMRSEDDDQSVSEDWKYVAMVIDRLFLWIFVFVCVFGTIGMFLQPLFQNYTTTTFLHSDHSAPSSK
Description for human CD4+ T cells: Cells were incubated at room temperature for 8 minutes in a rotator in the dark. 13 mL cRPMI was added to each tube and cells were centrifuged at 500×g for 4 minutes at room temperature before pellets were resuspended in 10 mL cRPMI. Cells were counted using the Auto2000 Cellometer and AO/PI viability stain and concentration adjusted to 0.6×10^6 cells/mL in cRPMI. […] Control wells were included for flow cytometry and edge wells were filled with 200 μL 1×dPBS. Cells were incubated at 37° C., 5% CO2 for 2 days before compound treatment. […] Cells were incubated at 37° C., 5% CO2 for a further 2 days prior to flow staining and supernatant harvest.
On the final day plates were centrifuged at 500×g for 4 minutes at room temperature. 125 μL of supernatants were transferred to a V bottom 96 well polystyrene plate and stored at −80° C. Plates were gently vortexed to disrupt the cell pellets before 125 μL 1×PBS was added to each well. Plates were centrifuged at 500×g for 4 minutes at room temperature and supernatants removed from the plates by aspirating. Plates were gently vortexed and 30 μL of live/dead stain (Invitrogen, L34975) in 1×dPBS was added and incubated for 15 minutes in the dark at 4° C. […] 100 μL of flow cytometry buffer was added and plates were centrifuged at 500×g for 4 minutes before supernatants were aspirated from the plates. Wells were resuspended in 200 μL flow cytometry buffer and plates stored at 4° C. before being run on the flow cytometer.
Data was analysed using FlowJo and the compensation matrix applied to all samples. The gates were set using unstained and unstimulated samples.

In the case of `Nc1nc2c(c(=O)[nH]1)N1C(=O)N(c3ccc(C(=O)N[C@@H](CCC(=O)O)C(=O)O)cc3)CC1CN2` (stereo partly drawn) [LY345899], the “tolerability at the therapeutic doses used” value in the data set on murine EAE model (in vivo) is “well tolerated”. Moreover, in the data set with murine EAE model (mice, oral, day 4 to day 26), the “disease severity and cumulative clinical score compared to vehicle” value is reported as “significantly reduced”; the “immune cell infiltrate into the spinal cord” value is given as “reduced”.
As for `Cc1c(N2CCN(C)[C@@H](C)C2)ccc2c3c(c(=O)oc12)CN(C(=O)c1ccc(NS(C)(=O)=O)c(OC(F)(F)F)c1)CC3` [DS18561882], the “tolerability at the therapeutic doses used” value in data set [1] (in vivo) is reported as “well tolerated”. For the same molecule, the ear-swelling entry in data set [1] (murine KLH contact sensitization model) is “could reduce ear-swelling”. Further, in the data set on CD4+ T-cells, the “number of Th1 and Th17 cells differentiated in vitro from CD4+ T-cells and expression of the respective Th1 and Th17 cytokines” value is given as “greatly decreased”. Moreover, in the data set with CD4+ T-cells (in vitro), the “IFNγ and IL-17” value was “significantly reduced”; the “immune-suppressive Treg cells” value is reported as “increased”.
For the molecule `COC[C@H]1CN(c2cc(C)c3c4c(c(=O)oc3c2C)CN(C(=O)c2ccc(C(=O)NS(=O)(=O)N3CCCC3)c(OC3CCC3)c2F)CC4)CCN1C` [Example 3, (R)-2-cyclobutoxy-3-fluoro-4-(8-(3-(methoxymethyl)-4-methylpiperazin-1-yl)-7,10-dimethyl-5-oxo-1,3,4,5-tetrahydro-2H-chromeno[3,4-c]pyridine-3-carbonyl)-N-(pyrrolidin-1-ylsulfonyl)benzamide], the IC50 in the data set with human CD4+ T cells lay within 1 to 10 nM; in data set [2] it was 10 to 100 nM; in data set [3] it was 10 to 100 nM; in data set [4], 20000 to 100000 nM. The “MTHFD1/MTHFD2 IC50 ratio” value in data set [2] is listed as “F (<3)”.
As for `CCOc1c(C(=O)NS(=O)(=O)N2CCCC2)ccc(C(=O)N2CCc3c(c(=O)oc4c(C)c(N5CCN(C)[C@@H](COC)C5)cc(C)c34)C2)c1F` [Example 147, (R)-2-ethoxy-3-fluoro-4-(8-(3-(methoxymethyl)-4-methylpiperazin-1-yl)-7,10-dimethyl-5-oxo-1,3,4,5-tetrahydro-2H-chromeno[3,4-c]pyridine-3-carbonyl)-N-(pyrrolidin-1-ylsulfonyl)benzamide], the IC50 lay in the range of 1 to 10 nM with human CD4+ T cells, 1 to 10 nM in data set [2], 10 to 100 nM in data set [3] and 20000 to 100000 nM in data set [4]. Moreover, in data set [2], the “MTHFD1/MTHFD2 IC50 ratio” value is “G (^ 3 to 9.0)”.
